Test system: patients with inadequately managed, severe chronic low back pain with or without a neuropathic pain component
Test: Patient Global Impression of Change (PGIC), same trial
Format: in vivo, human patients
Source text: This was a multicenter, multinational, open-label, effectiveness phase IIIb trial to evaluate effectiveness and safety of tapentadol prolonged release treatment in patients with inadequately managed, severe chronic low back pain with or without a neuropathic pain component. Patients taking WHO Step II analgesics discontinued those analgesics before starting study medication; patients taking Step I analgesics and/or centrally acting co-analgesics continued on the same dose. […] All patients received tapentadol prolonged release (50-250 mg bid) for up to 12 weeks (5-week titration period and a 7-week maintenance period). Tapentadol immediate release (IR) 50 mg (twice a day, hours apart) was permitted (combined total daily dose of tapentadol prolonged release and tapentadol IR, 500 mg/day). The primary efficacy endpoint was the change from Baseline to Week 6 (when tapentadol prolonged release doses were stable) in average pain intensity on the 11-point NRS-3 using the last observation carried forward (LOCF) for imputing missing scores. The painDETECT questionnaire was used to evaluate the likelihood of a neuropathic pain component of low back pain; patients were classified as painDETECT “negative,” “unclear,” or “positive.” The population of patients classified as painDETECT negative was limited to approximately 30% of the total population.
All subjects completed Short Form-36 (SF-36) and EuroQol-5 Dimension (EQ-5D) questionnaires and the Hospital Anxiety and Depression Scale (HADS). The Patient Global Impression of Change (PGIC) and Clinical global impression of change (CGIC) were also used as secondary endpoints. For both tests, patients completed the statement, “since I began trial treatment, I would rate my overall condition as,” using 7 possible responses (“very much worse” to “very much improved”). Adverse events were recorded throughout the trial.

CC[C@@H](c1cccc(O)c1)[C@@H](C)CN(C)C [tapentadol, (−)-(1R,2R)-3-(3-dimethylamino-1-ethyl-2-methyl-propyl)-phenol]
percentage of patients reporting “very much improved” or “much improved” on the PGIC (Week 1 (26/172)): 15.1%
percentage of patients reporting “very much improved” or “much improved” on the PGIC (Week 6 (67/138)): 48.6%
percentage of patients reporting “very much improved” or “much improved” on the PGIC (Week 12 (61/91)): 67.1%

Reference: patent publication US9980927B2, “Use of tapentadol for inhibiting and/or treating depression and anxiety” (Gruenenthal GmbH, priority 2011, dated 2018)
